The subject of series [1] is ^15N-labeled ABD2 (residues 384–627). Put plainly: NMR titration of ^15N-labeled ABD2 with peptide. It is filed as binding, human. The settings on record: synthetic H5 peptide titrated into ^15N-labeled ABD2 (Supplementary Fig. S5b).
Series [2] concerns the target T1, Ca^2+-bound EF (EF domain of LPL) (Homo sapiens, UniProt P13796).
T1 construct: His-tag (with TEV protease cleavage site) (N, cleaved yes); made in house; host or cells: E. coli BL21 (DE3)
T1 sequence (P13796 1-82 limits assumed): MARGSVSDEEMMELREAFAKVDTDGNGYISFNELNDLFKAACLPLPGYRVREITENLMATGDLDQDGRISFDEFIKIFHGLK
Kind of series: Surface plasmon resonance (SPR), peptides binding to immobilized EF. The method, then:
The binding between Ca^2+-bound LPL-EF and a synthetic peptide corresponding to H5 (Ac-[…]-NH2) was evaluated by SPR using a BIAcore X100 instrument (GE Healthcare) and was compared to other peptides including the cytotoxic peptide melittin, and the CaM-target CaMKI and smMLCK peptides. Peptides used here were purchased as synthetic peptides with >95% purity from Genscript (San Diego, CA). The EF construct was immobilized via its sole cysteine residue (Cys42) onto a CM5 sensor chip (GE Healthcare) using thiol-coupling. The running buffer contained 10 mM Tris-HCl pH 7.5, 150 mM KCl, 1 mM CaCl2, and 0.005% (v/v) Tween-20. Different concentrations of the peptide sample were injected at a flow rate of 30 μL/min with a contact time of 1 min at 25 °C. The BIAevaluation software 2.0 (GE Healthcare) was used to process the SPR sensorgrams and for curve-fitting to obtain the dissociation constants (Kd’s). Two different concentrations in each experiment were injected twice to obtain the fitting errors (SEM).
SPR measurements for the interactions between EF and various peptides. The affinity fittings […]
The response units at 4 seconds after starting the injection were used for CaMKIp due to the nonspecific binding seen later during the injection, while the response units at 4 seconds before stopping the injection were used for the […]
(1 picture or pasted object on this page, not shown here)
For orientation: SPR reads the build-up and loss of mass on a sensor chip optically.

For a further series, the system named is ^15N-labeled EF. Put plainly: HSQC NMR titration of ^15N-labeled EF with peptide. It is filed as binding, human. The following applies: H5 peptide added to ^15N-labeled EF (Supplementary Fig. S8). The method, then: The calcium-free samples of EF-H5, EF-H5-S5E, and EF contained 0.5–1.0 mM ^15N- or ^13C,^15N-labeled protein, 100 mM KCl, 20 mM Bis-Tris (pH 6.8), 1 mM EDTA, 0.03% NaN3, 10 mM ^2H-labelled dithiothreitol (^2H-DTT), and 0.5 mM 2,2-dimethyl-2- silapentane-5-sulfonate (DSS) in 99.99% D2O or 10% D2O/90% H2O. The calcium free non-labeled LPL-EF was also prepared in 99.99% D2O with the same buffer components. The calcium-bound form of those constructs were prepared in buffer containing ~1 mM ^15N- or ^13C,^15N-labelled protein, 100 mM KCl, 20 mM Bis-Tris (pH 6.8), 5 mM CaCl2, 0.03% NaN3, 0.5 mM DSS, and 10 mM ^2H-DTT in 99.99% D2O or 10% D2O/90% H2O. The calcium-bound non-labeled LPL-EF-H5 was also prepared in 99.99% D2O with the same buffer ingredients. DSS was used as a reference to obtain ^1H, ^15N and ^13C chemical shifts. All NMR spectra were processed with NMRPipe[71] and analyzed using NMRView[72].
All NMR experiments were performed with a Bruker Avance 700 or 600 MHz spectrometer at 25 °C. […] All NOESY experiments including three-dimensional ^15N-edited NOESY-HSQC and ^13C-edited NOESY-HSQC, and two-dimensional NOESY were measured with a mixing time of 120 ms. {^1H}-^15N heteronuclear NOE data were obtained using a 5 sec train of 120° proton pulses.

The test system of the next series is normal cells. The settings on record: in words; no ref at the sentence; cited from earlier work. The source says:
Development of metastasis provides the most serious challenge for cancer treatment and is responsible for most cancer related deaths. A number of recent studies have shown that ectopically expressed LPL is largely responsible for this process. Therefore, LPL presents itself as a promising target for drug development to prevent the metastatic activity of the cancer cells. It is also well known that inhibition of fascin, another actin-bundling protein, is a viable approach to block tumor metastasis.

The mark [3] stands for this setting: EF immobilized via Cys42 on CM5 chip, 10 mM Tris-HCl pH 7.5, 150 mM KCl, 1 mM CaCl2, 0.005% Tween-20, 25 °C, response at 4 seconds before stopping the injection, fitting error SEM, read-out: KD.

“Also recorded” adds a separate entry of the source. Where two headings read alike, the source gives them in different places.

Regarding Ac-STDVAKTFRKAINKKEGI-NH2 [H5p], the “Interaction with ABD2 (chemical shift changes)” value in series [1] is “no chemical shift changes were observed, indicating no interaction”. Besides, the Kd (usually the equilibrium constant for the complex coming apart) in series [2] (Ca^2+-bound EF, SPR, pH 7.5, 25 °C, read-out: Kd of H5 peptide for Ca^2+-bound EF (order of magnitude, discussion)) is 1 µM; in series [2] (setting [3]), 3.52 µM. In addition, the “HSQC spectral effect of H5 peptide on ^15N-labeled EF” value in the series on ^15N-labeled EF was “intermediate exchange and resultant line broadening; also recorded: did not produce the same spectrum as EF-H5”.

Consider `CC[C@H](C)[C@H](NC(=O)CN)C(=O)NCC(=O)N[C@@H](C)C(=O)N[C@H](C(=O)N[C@@H](CC(C)C)C(=O)N[C@@H](CCCCN)C(=O)N[C@H](C(=O)N[C@@H](CC(C)C)C(=O)N[C@H](C(=O)N[C@H](C(=O)NCC(=O)N[C@@H](CC(C)C)C(=O)N1CCC[C@H]1C(=O)N[C@@H](C)C(=O)N[C@@H](CC(C)C)C(=O)N[C@H](C(=O)N[C@@H](CO)C(=O)N[C@@H](Cc1c[nH]c2ccccc12)C(=O)N[C@H](C(=O)N[C@@H](CCCCN)C(=O)N[C@@H](CCCNC(=N)N)C(=O)N[C@@H](CCCCN)C(=O)N[C@@H](CCCNC(=N)N)C(=O)N[C@@H](CCC(N)=O)C(=O)N[C@@H](CCC(N)=O)C(N)=O)[C@@H](C)CC)[C@@H](C)CC)[C@@H](C)O)[C@@H](C)O)C(C)C)C(C)C` [Melittin, reference compound], for which the dissociation constant Kd in series [2] (setting [3]) is 0.158 µM. Besides, the Hemolysis and toxicity entry in the series on normal cells is “strong hemolytic peptide that is toxic to all normal cells”.

Values taken from PMC5286426, “The Calcium-Dependent Switch Helix of L-Plastin Regulates Actin Bundling” (Scientific Reports, 2017).
